SMILES strings stand for the structures.

Experiment [1] concerns SK-OV-3 ovarian cancer xenograft (ARID1A mutation). Put plainly: SK-OV-3 ovarian cancer xenograft efficacy study. Type of experiment: in vivo, athymic nude mice. On the procedure:
The tumor was identified as harboring an ARID1A mutation. […] Control and 35 mg/kg group n=10. Horizontal black line is 35 mg/kg group tumour volume on Day 0.
(§1) The in vivo efficacy of Compound A was investigated in xenograft tumours in athymic nude mice with a focus on ovarian cancers. […] Of the seven cell lines, SK-OV-3; TOV-21G, OVISE, and IGROV1 were identified as harboring an ARID1A mutation, while OVCAR-5, ES-2, and RMG1 were ARID1A wildtype.
(§2) Once the tumours were established, mice were randomised into vehicle control and treatment groups. Mice in both the vehicle control and treatment groups that were removed during the course of the study due to spontaneous or treatment derived tumour regression, tumour growth approaching license limits, tumour ulceration or loss of condition were excluded from the final analysis of the mean tumour volume and standard error of the mean and up to the point they were removed from the study. The number of mice undergoing complete tumour regression in the treatment group is noted where applicable.
(§3) Two groups of 12 female NCr nude mice (3 groups of 10 for SK-OV-3) were injected with 3-5×10^6 cells of one of the above cancer cell lines, subcutaneously. […] Body weights were taken daily and animals were monitored for signs of toxicity. […]

Experiment [2] concerns TOV-21G ovarian cancer xenograft (ARID1A mutation). Kind of experiment: TOV-21G ovarian cancer xenograft efficacy study. Format: in vivo, NCr nude mice. To be noted: TOV-21G xenograft, 35 mg/kg oral once daily, 5/7 days, 21/19 doses/study days. How it is done: The tumor was identified as harboring an ARID1A mutation. […] Vehicle control group n=8 and 35 mg/kg dose group n=11.
as §1, §2, §3

Experiment [3] concerns OVISE ovarian cancer xenograft (ARID1A mutation). Kind of experiment: OVISE ovarian cancer xenograft efficacy study. Format: in vivo, NCr nude mice. The following applies: 35 mg/kg oral once daily, 5/7 days, 38/52 doses/study days.
Description: as §1, §2
(§4) Two groups of 12 female NCr nude mice (3 groups of 10 for SK-OV-3) were injected with 3-5×10^6 cells of one of the above cancer cell lines, subcutaneously. […] Body weights were taken daily and animals were monitored for signs of toxicity. To evaluate drug levels the animals were euthanised in batches of 3 to 4 at 2, 6 and 24 hours after the last dose and terminal plasma and tumour samples collected for PK analysis.

The subject of experiment [4] is IGROV1 ovarian cancer xenograft (ARID1A mutation). Kind of experiment: IGROV1 ovarian cancer xenograft efficacy study. Type of experiment: in vivo, NCr nude mice. To be noted: 35 mg/kg oral once daily, intermittent, 11/15 doses/study days.
Description: as §1, §2, §4

For experiment [5], the system named is ES-2 ovarian cancer xenograft (ARID1A wildtype).
Description: as §2, §4

The test system of experiment [6] is OVCAR-5 ovarian cancer xenograft (ARID1A wildtype).
Description: as §2, §4

Experiment [7] deals with RMG1 ovarian cancer xenograft (ARID1A wildtype).
Description: as §2, §4

For `CCN1CCN(Cc2ccc3cc(C(=O)Nc4cc(NC(=O)c5ccc6c(c5)OCCO6)ccc4F)ccc3n2)CC1` [Compound A, N-(5-(2,3-Dihydrobenzo[b][1,4]dioxine-6-carboxamido)-2-fluorophenyl)-2-((4-ethylpiperazin-1-yl)methyl)quinoline-6-carboxamide], the “sensitivity in xenograft models (in words)” value in experiment [1] (SK-OV-3, ARID1A mutated, compared with the other six xenografts) is recorded as “most sensitive cell line in xenograft models”. For the same compound, the “TGI (%)” value in experiment [1] (SK-OV-3 xenograft, 35 mg/kg oral once daily, continuous, 20/20 doses/study days) turned out to be 120%; in experiment [2] it was 81%; in experiment [3], 70%; in experiment [4], 56%; in experiment [5] (ES-2 xenograft, 35 mg/kg oral once daily, 5/7 days, 12/17 doses/study days) it was 12%; in experiment [6] (OVCAR-5 xenograft, 35 mg/kg oral once daily, 5/7 days, 21/27 doses/study days), 27%. In experiment [7] (RMG1 xenograft, 35 mg/kg oral once daily, 5/7 days, 15/19 doses/study days), the “TGI (%)” value is −3.0%. For the same compound, the “efficacy in xenograft model (in words)” value is recorded as “did not meet the criteria for efficacy” in experiment [5] (ES-2 ARID1A wild type model, criterion TGI>50%) and “did not meet the criteria for efficacy” in experiment [6] (OVCAR-5 ARID1A wild type model, criterion TGI>50%). Also, the “inhibition of xenograft tumour growth (in words)” value in experiment [7] (RMG1 ARID1A wildtype model) was “No inhibition of xenograft tumour growth”.

Source of the values: patent US20240398788A1, “METHODS OF TREATING CANCER USING HSF1 PATHWAY INHIBITORS” (Institute of Cancer Research, priority 2021, published 2024).
